According to ChEMBL document CHEMBL5107983, “Adipocyte fatty acid binding protein 4 (FABP4) inhibitors. An update from 2017 to early 2022” (Eur J Med Chem, 2022):

Tests used:
[1] = molecular target: T1, Fatty acid-binding protein, adipocyte (Homo sapiens, UniProt P15090); assay: Inhibition of FABP4 (unknown origin) incubated for 10 mins by fluorescence based analysis
[2] = molecular target: T1, Fatty acid-binding protein, adipocyte; assay: Inhibition of human FABP4
[3] = molecular target: T1, Fatty acid-binding protein, adipocyte; assay: Displacement of 1,8-ANS from human recombinant FABP4 incubated for 4 mins by fluorescence based analysis

T1 sequence (P15090 whole entry): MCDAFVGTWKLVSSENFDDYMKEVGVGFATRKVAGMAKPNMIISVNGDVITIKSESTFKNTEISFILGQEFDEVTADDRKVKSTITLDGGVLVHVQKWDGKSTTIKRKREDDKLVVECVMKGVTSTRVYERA

Compound | IC50 [1] | other results
O=C(O)Cc1cn(-c2ccccc2-c2nc(-c3ccccc3)c(-c3ccccc3)s2)nn1 | 5.59 µM | 
COc1cc(Br)c(C(C)(C)C)cc1S(=O)(=O)Nc1ccccc1C(=O)O |  | IC50 [2]: 1.5 µM
CC(C)OC(=O)C(C(=O)C(F)(F)F)c1cc(NS(=O)(=O)c2ccccc2)ccc1O (configuration not stated) |  | IC50 [3]: 3.5 µM
C=CCn1c(=O)[nH]c(=O)c2[nH]c(-c3ccc(OCCNC(=O)c4ccccc4)cc3)cc21 | 2.23 µM | 
O=C(O)Cc1cn(-c2ccccc2-c2nc(-c3ccc4ccccc4c3)c(-c3ccccc3)s2)nn1 | 3.7 µM | 
O=C(O)Cc1cn(-c2ccccc2-c2nc(-c3ccc(Cl)cc3)c(-c3ccccc3)s2)nn1 | 4.31 µM | 
O=C(O)c1cccc(NS(=O)(=O)c2ccc(Br)c3ccccc23)c1 |  | IC50 [2]: 5.5 µM
